Measurements published in a melting point compilation (Tetko et al.; mined from patent text by program, amines drawn as free bases though some values may be those of a salt).

| Structure (SMILES) | melting point |
| --- | --- |
| CC(=O)N(O)C(C)c1ccc(C#Cc2cccs2)cc1 (configuration not stated) | 128 to 129 °C |
| Cc1nc2c3c(ccn2c1C)C(OCCO)C(O)C(c1ccccc1)N3 (configuration not stated) | 107 to 109 °C |
| Cc1cnc(CNC(=O)c2sc(-n3cnn(Cc4ccc(F)cc4)c3=O)nc2C)cn1 | 188 to 189 °C |
| CCCSc1cc(OCc2ccc(Cl)cc2)ccc1C | 35 to 36 °C |
| Cc1ccc(S(=O)(=O)NC(=O)OCCc2ccc(-n3c(CCC(=O)N4CCCC4)nc4cc(C(F)(F)F)c(Cl)cc43)cc2)cc1 | 98 to 105 °C |
| O=C(NNc1nc(C(F)(F)F)nc(-c2ccncc2)c1-c1ccc(F)cc1)C(F)(F)F | 240 to 242 °C |
| O=C(O)C=C[C@H](Cc1ccc(-c2ccccc2)cc1)NCP(=O)(O)O | 231 to 233 °C |
| Nc1cc(CO)cc(S(N)(=O)=O)c1Cc1ccccc1 | 159 to 161 °C |
| CCCCC(CCCC)C(=O)O[C@H]1C[C@H](O)C=C2C=C[C@H](C)[C@H](CC[C@@H]3C[C@@H](O)CC(=O)O3)[C@H]21 | 143 to 145 °C |
| CN(C(=O)OC(C)(C)C)C1CC=C(c2c[nH]c3cc([N+](=O)[O-])ccc23)CC1 (configuration not stated) | 208 to 210 °C |
| CCCCOc1ccc2c(C(F)(F)F)c(OC)ccc2c1C(=O)N(C)CC(=O)O | 152 to 155 °C |
| Cc1nn(-c2ccc(C(F)(F)F)cn2)cc1CCCOc1cccc(CC(=O)O)c1 | 96 to 97 °C |
| CC(C)COc1ccccc1-c1ncc(C(N)=O)c(=O)[nH]1 | 230 to 231 °C |
| CCN(CC)c1ccc(-c2ncccc2S(=O)(=O)Nc2ncc(C)nc2OC)cc1 | 115 to 117 °C |
| CCCS(=O)(=O)NCC1CC2C=CC1C2 (configuration not stated) | 51 to 52 °C |
| CCCCCCCCCc1c(C(=O)O)sc2cc(Br)ccc12 | 126 to 127 °C |
| CCOC(=O)C(Cc1ccc(OCCc2nc(-c3ccccc3)oc2C)cc1)C(=O)O (configuration not stated) | 95.1 to 96 °C |
| O=C(OCc1ccccc1)c1ccc(OC(=O)c2ccc(C(=O)Oc3ccc(C(=O)OCc4ccccc4)cc3)cc2)cc1 | 186 to 187 °C |
| O=c1[nH]c2cc(Cl)ccc2n1C1CCNCC1 | 200 to 206 °C |
| CCC(=O)NCC1Cc2cccc3cccc1c23 (configuration not stated) | 111 °C |
| CCCN(CCC(=O)Nc1c(SC)nc(C)nc1N(CC)CC)c1ccccc1 | 147 to 149 °C |
| COc1cccc2c1nc(C(F)F)n2-c1nc(NC2CCN(C(=O)OC(C)(C)C)CC2)c(N)c(N2CCOCC2)n1 | 223 to 225 °C |
| COc1ccc(COCc2nc(C(C)C)c(Sc3cc(Cl)cc(Cl)c3)n2C(C)C)cc1 | 136 to 137 °C |
| COC(=O)CCCCCOC1OC(CO)C(O)C(O)C1NC(C)=O (configuration not stated) | 154 to 155 °C |
| COc1cc(OC)nc(NC(=O)NS(=O)(=O)N=CN(CSC)OC)n1 | 165 to 167 °C |

| Structure (SMILES) | melting point |
| --- | --- |
| COC(=O)n1nc(-c2cc(Cl)c(C)c(Cl)c2)ccc1=O | 203 to 206 °C |
| CC(C)(Cc1ccc(Cl)cn1)C(N)=O | 51.4 to 53.4 °C |
| COC(=O)C(Oc1ccc(CCCCCCCl)cc1)c1ccc(Sc2ccc(Cl)cc2)cc1 (configuration not stated) | 122 to 124 °C |
| CCc1cccc(C)c1CNc1cc(C(=O)NCCO)cc2c1nc(C)n2C | 200 to 201 °C |
| Cc1ncc([N+](=O)[O-])n1CCN1C(=O)C2CC=CCC2C1=O (configuration not stated) | 118 to 123 °C |
| CN1CCC(c2nn(-c3ccccc3C#N)c3ccccc23)CC1 | 117 to 119 °C |
| O=C(CO)N1CCN(c2ccc(Nc3cc(-c4cnc5cc[nH]c5c4)cn4ccnc34)nc2)CC1 | 218 to 220 °C |
| COc1ccc(C(=O)CC(SC(C)=O)C(=O)O)cc1 (configuration not stated) | 122 to 124 °C |
| COc1ccc(C(=O)c2cc(Cl)ccc2NS(=O)(=O)c2ccc(C)cc2)c(O)c1OC | 185 to 187 °C |
| O=C(O)C(O)(c1cccs1)c1cccs1 | 84 °C |
| Cc1cccc2c(=O)[nH]c(C3CCC(N(C)C)CC3)nc12 (configuration not stated) | 181 to 183 °C |
| CSc1nccc(CC(=O)c2cccc(Br)c2)n1 | 98 to 101 °C |
| C=CCSCCON=C(C(=O)OCC)c1csc(NC=O)n1 | 62 to 64 °C |
| O=C(O)c1cc(NC(=O)C(F)(F)F)c(C(=O)c2ccccc2)c(OCc2ccccc2)c1 | 213 °C |
| CCC(CC)c1nc(-c2ccncc2)c(-c2ccc(Cl)cc2)n1C | 100 to 102 °C |
| COc1cccc(NCc2sccc2S(=O)(=O)Nc2onc(C)c2Br)c1 | 70 to 73 °C |
| COc1ccc2c(c1)Cc1nnc(OC)n1C=C2 | 176 to 177 °C |
| COC(=O)C1=C(C)NC(C)=C(C(=O)OCC2CCCO2)C1c1ccccc1Cl (configuration not stated) | 165 to 167 °C |
| CCCc1nn(-c2ccc(C(F)(F)F)cn2)cc1CCCOc1c(Br)cccc1CC(=O)O | 145 to 146 °C |
| CN(Cc1ccc[nH]1)C1CCCN(C(=O)c2ccc(Nc3nccc(Nc4ccc(F)cc4)n3)cc2)C1 (configuration not stated) | 148 to 151 °C |
| O=C1c2ccccc2C(=O)N1CCOc1cccc2c1CCC2 | 128 to 132 °C |
| Cc1c(SCCCSc2ccc3ncc([N+](=O)[O-])n3n2)ccnc1CCl | 155 to 156 °C |
| CC(C)(C)OC(=O)Cc1ccc(CC(N=C(c2ccccc2)c2ccccc2)C(=O)OCc2ccccc2)cc1 (configuration not stated) | 139 to 141 °C |
| O=C(OCc1ccccc1)c1cc(C(=O)OCc2ccccc2)n(CCBr)n1 | 112 °C |
| Cc1ccccc1-c1cccc(/C=C/C(=O)Nc2ccc(CN3CCCCC3)cc2)c1 | 185 to 187 °C |

| Structure (SMILES) | melting point |
| --- | --- |
| Cc1cc(S(=O)(=O)Nc2cccc3ccccc23)c2c(C)ccc(C(C)C)cc1-2 | 140 to 142 °C |
| CCOCCOc1ccc(COc2ccc3c(c2)C=C(C(=O)O)CCS3(=O)=O)cc1 | 256 to 258 °C |
| O=c1[nH]c2ccc(C(F)(F)F)cc2c(-c2cc(Cl)ccc2O)c1NCc1ccccc1 | 215 to 217 °C |
| O=C(Nc1ccc2[nH]c(=O)sc2c1)C(=O)N1CCC(Cc2ccccc2)CC1 | 201 to 203 °C |
| c1ccc(-c2csc(-c3cnn4cccnc34)c2)cc1 | 72 to 72.5 °C |
| CC(C)(C)C1=C(CO)N=NC1=O | 169 to 172 °C |
| Cn1cnc(-c2ccccc2)c1-c1nn(-c2cccc(C(F)(F)F)c2)ccc1=O | 214 to 216 °C |
| O=Cc1c[nH]c(=O)c2ccccc12 | 222 to 223 °C |
| OCC1(c2c[nH]cn2)Cc2ccccc2C1 | 181 to 184 °C |
| O=C(CCCCCC(=O)NCCc1c[nH]c2ccccc12)NO | 140 to 142 °C |
| Cc1ccc2nc(N3CCN(c4c(Cl)cncc4Cl)CC3)[nH]c2c1 | 251 to 254 °C |
| CCCCC[C@H]1CC[C@H](c2cnc(C#N)nc2)CC1 | 83.5 °C |
| c1cnc(C2CNCC(c3ncccn3)N2)nc1 (configuration not stated) | 159 to 161 °C |
| O=C1C(=O)N(CCCN2CCN(C(=O)N(c3ccccc3)c3ccccc3)CC2)c2ccccc21 | 163 to 164 °C |
| CS(=O)(=O)c1ccc(-c2ccc(C(F)(F)F)n2-c2ccc(F)cc2)cc1 | 136 to 139 °C |
| CC(=O)c1ccc(OCC=C(C)CSCc2ccccc2)cc1 | 75 to 76.5 °C |
| Nc1ccc(C=CC2CSC(=O)NN2)cc1 (configuration not stated) | 188 to 196 °C |
| CCN(CC)CCOc1c(-c2ccc(S(C)(=O)=O)cc2)cnn(-c2cccc(Cl)c2)c1=O | 110 to 113 °C |
| CCc1cccc(C)c1CNc1cc(Br)cc2c1nc(COC)n2C | 110 to 112 °C |
| Cc1cc(C)c(C(O)c2cc(-n3ccnc3)ccc2Cl)c(C)c1 (configuration not stated) | 206 to 207 °C |
| CC(C)(C)[Si](OCC1OC(n2ccc(N)nc2=S)C(O)(CC[Si](C)(C)C)C1O)(c1ccccc1)c1ccccc1 (configuration not stated) | 126 °C |
| CCCCc1c(OC)cc(C(=O)O)nc1OC | 113 to 114 °C |
| CCOC(=O)c1c(S(=O)(=O)O)nc(-c2ccccc2)c([N+](=O)[O-])c1C(=O)OCC | 187 to 190 °C |
| CC(=O)c1ccc2c(c1)N(C1CCN(CCc3ccc(F)cc3)CC1)CC2 | 90 to 92 °C |
| COc1ccc(-c2cc(=Nc3c(C)cc(C)cc3C)n(C)c(Cl)n2)cc1OC | 159 to 162 °C |

| Structure (SMILES) | melting point |
| --- | --- |
| COC(=O)C[C@H](O)C[C@H](O)C=Cc1c(-c2ccc(F)cc2)c(-c2ccccc2)c(C(=O)NCc2ccc(F)cc2)n1C(C)C | 68 to 69 °C |
| CC(=O)N[C@@H]1C(O)O[C@H](COC(C)=O)[C@@H](O)[C@@H]1O (some centres not stated) | 47 to 51 °C |
| COc1ccc2oc(-c3nc4c(s3)NCCCC4)cc2c1 | 121 to 125 °C |
| O=C(CC1(C=NO)OCCO1)OCc1ccccc1 | 52 °C |
| Fc1cccc(CSc2nnc(-c3ccc4c(c3)CCO4)o2)c1 | 128 to 129 °C |
| COc1ccc(COc2cccnc2NC(=N)Nc2ccc(Cl)cc2)c(F)c1 | 158 to 161 °C |
| O=C(N[C@H](Cc1ccccc1)[C@H](O)C(=O)O)c1ccccc1 | 172 to 173 °C |
| COc1ccc(C(=O)CCCCCl)cc1S(N)(=O)=O | 135 to 136 °C |
| Cc1cccc(NC(=O)N2CCN(CCc3ccc(-c4cccc(N)n4)cc3)CC2)c1 | 88 to 94 °C |
| Cc1ccn2c(-c3ccnc(-c4ccc(OCC(N)=O)cc4)c3)c(-c3cccc(C)n3)nc2c1 | 213 °C |
| O=C(NNc1ccc(NC(=S)Nc2ccccc2)cc1)c1ccc(Cl)cc1 | 198 to 199 °C |
| O=S1(=O)OCC(COC(C(F)(F)F)(C(F)(F)F)C(F)(F)F)(COC(C(F)(F)F)(C(F)(F)F)C(F)(F)F)CO1 | 90 to 91 °C |
| O=C(O)CCCc1cc2nc(Cl)ccc2n1S(=O)(=O)c1ccc(-n2cccn2)cc1 | 196 to 207 °C |
| CN1CCn2c1nc(N1CCc3ccccc3CC1)c(C#N)c2=O | 174 to 177 °C |
| Cc1nc(C#N)ccc1N | 192 to 196 °C |
| CCOCc1nc2c(N)nc3cc(-c4ccc(F)cc4)cnc3c2n1CC1(O)CCCC1 | 212 °C |
| O=[N+]([O-])c1cccc(C2Nn3cc(-c4ccc(-c5ccccc5)cc4)nc3S2)c1 (configuration not stated) | 263 to 265 °C |
| O=C1c2cccc3cccc(c23)C(=O)N1CCCCBr | 113 to 115 °C |
| Cc1ccc(NC(=O)N2CCc3cc(S(=O)(=O)N4CC(c5ccccc5)NC4=O)ccc32)cc1 (configuration not stated) | 223 to 224 °C |
| O=C(Oc1ccc(F)cc1)Oc1ccc(F)cc1 | 122 to 123 °C |
| CNC(=O)N1CCN(CC(O)COc2ccccc2)CC1 (configuration not stated) | 91 to 95 °C |
| COc1ccccc1[C@H](c1cccc2ccccc12)[C@@](C)(C#N)C(=O)N1CCN(c2ccccc2Cl)CC1 | 145 to 147 °C |
